In patent US6780641B2, “Immortalized human microglia cell line” (University of British Columbia, priority 2000, dated 2004):
Entries after “also recorded” stand apart in the source; their conditions may differ.

Tests used:
[1] = tested on: HMO6.A1 cells; assay: Fura-2 Ca2+ fluorescence in HMO6.A1 cells; assay type: cell-based, human; conditions: ATP 100 μM; ionomycin 10 μM after ATP perfusion; n=7 cells
Procedure: The cultured HMO6.Al cells were loaded for 25 min with the Ca^2+ indicator fura-2-acetoxymetethylester (fura-2AM). The dye was applied with pleuronic acid (both at concentrations of 1 μM) to normal physiological solution (PSS) at room temperature (20-22° C.). Following a 5 min wash in dye-free solution, the coverslips were placed on the stage of a Zeiss Axiovert inverted microscope containing a ×40 quartz objective lens. Alternating excitation wavelengths (340/380 nm) of UV light were applied at intervals of 8 s and fluorescence signals were obtained at 510 nm of emission light (bandwidth of 4 nm) from 8-20 cells in the field of view. Signals were acquired from a digital camera (DVC-1310, DVC Co., Austin, Tex.) and were processed using an imaging system (Empix, Mississauga, ON) to determine ratios of the 340 nm and 380 nm intensities which have been used as quantitative measures of fluorescence levels in this work.
All studies were done at room temperature (20-22° C.) and values obtained from multiple cells are reported as mean ±SEM with statistical significance for p≦0.05 using the Student's t-test.
The purinergic agonist ATP (at 100 μM) was applied to HMO6.A1 cells using calcium sensitive fluorescence microscopy. The results from a representative experiment are presented by FIGS. 3A and 3B which show an ATP-induced increase in [Ca^2+]i from n=7 cells. […]

[2] = tested on: HMO6.A1 cells; assay: RT-PCR analysis of gene expression in agent stimulated HMO6.A1 cells; assay type: cell-based, human; conditions: for P2Y2 receptor expression / B7-2 mRNA expression: HMO6.A1, RT-PCR; for B7-2 mRNA expression: 24 hr incubation; for Stimulated HMO6 cell expressed active substance(s): RT-PCR, agent stimulated HMO6 cells
Text: The information of Table E1 is provided merely as a convenience to the reader and utilizes conventional gene sequences.
Sense and antisense primers of each primer pair given by Table E1 were set at a different exon, respectively, to avoid DNA contamination. To assess the character of HMO6.A1 cells, the expression of cytokines (IL-1β, -2, -3, -4, -5, -6, -7, -8, -9, -10, -11, -12, -13, -15, and TNF-α), chemokines (macrophage inflammatory protein (MIP)-1α, MIP-1β, and monocyte chemoattractant protein (MCP)-1) was examined by RT-PCR. Total RNA was extracted using Trizol reagent (GIBCO-BRL, Gaithersburg, Md.). Complimentary DNA (cDNA) templates from each sample were prepared from 2 μg of total RNA primed with oligo dT primers (Pharmacia, Gaithersburg, Md.) using 400 units of MMLV reverse transcriptase (GIBCO-BRL) followed by 25 PCR amplification cycles (94° C. for 30 seconds, annealing at 60° C. for 60 seconds, and extension at 72° C. for 90 seconds). This cycle number allowed a linear cDNA dose-response. Glyceraldehyde-3-phosphate dehydrogenase (G3PDH) was used as a reaction standard [Ercolani et al., J. Biol. Chem. 263: 15335-15341 ([…])].
To confirm the purity of cell preparation, cDNA from microglia-enriched cultures were amplified for B7-2 (CD86, for microglia); GFAP (a cell type-specific marker for astrocytes); myelin basic protein (MBP, for oligodendrocytes); and neurofilament-M (NF-M, for neurons). For characterization of HMO6.A1 cells, mRNA expression of marker proteins specific for each cell type was also investigated. Gene expression of CD68, P2Y1 purinergic receptor (P2Y1R), P2Y2R, CXCR4 which are expressed in embryonic human microglia (HM) was also examined in HMO6.A1 cells. […] of each PCR product was analyzed by 1.5% agarose gel electrophoresis. Authentic bands were determined by selective enzyme digestion.
[…] LPS at 100 ng/ml was used in microglial cultures since LPS is a potent activator of microglia [Gebicke-Haeter et al., J. Neurosci. 9: 187-194 (1989); Suzumura et al., Brain Res. 545: 301-306 (1991)].

[3] = tested on: embryonic human microglia; assay: GM-CSF stimulated proliferation of embryonic human microglia; assay type: cell-based; conditions: GM-CSF 8 μg/ml for 9-12 days
Procedure: It is also desirable that, for the last part of this time, microglia are exposed to granulocyte macrophage colony stimulating factor (GM-CSF) at final concentration of 8 ug/ml for 9-12 days with a medium change every 3 days. GM-CSF treatment stimulated proliferation of microglia results in a 3-4 fold increase in microglial population.
As illustrated by FIG. 1, an amphotropic replication-incompetent retroviral vector encoding v-myc oncogene (transcribed from mouse leukemia virus LTR plus neomycin-resistant gene transcribed from a SV40 early promotor) was used to infect human microglia inducing propagation of immortalized human microglial cell lines. This amphotropic vector, PASK 1.2, was generated using the ecotropic retroviral vector encoding v-myc (obtained from the American Type Culture Collection, Rockville, Md.) to infect PA318 amphotropic packaging cell line. Microglia were exposed to granulocyte macrophage colony stimulating factor (GM-CSF) at final concentration of 8 μg/ml for 9-12 days with medium change every 3 days. GM-CSF treatment stimulated proliferation of microglia resulting in 3-4 folds increase in population. Microglia treated with GM-CSF for 9-12 days were subjected to retrovirally mediated transduction of v-myc by PASK 1.2 construct and subsequent cloning.

[4] = tested on: embryonic human microglia (HM); assay: RT-PCR analysis of gene expression in embryonic human microglia (HM) after Aβ25-35/LPS; assay type: cell-based; conditions: 6 hr
[5] = tested on: HMO6.A1 cells; assay: ELISA of cytokines/chemokines released from HMO6.A1 cells; assay type: cell-based, human; conditions: for MIP-1α amount of release / levels of IL-8 in the supernatant: HMO6.A1, 48 hours; for levels of IL-8 in the supernatant: versus non-treated controls
Procedure: (§1) Production of TNF-α, IL-1β, IL-6, IL-8 or MIP-1α in normal human microglial cells or HMO6.A1 cells was determined in spent culture supernatants using ELISA kits specific for human TNF-α, IL-1β, IL-6, IL-8 or MIP-1α (R&D Systems, capable of detecting TNF-α at 4.4 pg/ml, IL-1β at 1 pg/ml, IL-6 at 0.70 pg/ml, IL-8 at 10 pg/ml and MIP-1α at 10 pg/ml). At the end of each experiment, culture supernatants were collected, centrifuged, and stored at −70° C.
(§2) FIGS. 6A-6E are graphs presenting ELISA analyses of cytokines and chemokines released from normal human microglia and HMO6 immortalized human microglia cell line. Cells were plated in 6-well plates, stimulated for 48 hours with or without 20 ug/ml β-amyloid or 10 ng/ml LPS, and then cytokine/chemokine production in spent media was measured. Values represent mean±SEM from 3 experiments.

[6] = tested on: normal human microglial cells; assay: ELISA of cytokines/chemokines released from normal human microglia (HM); assay type: cell-based; conditions: for IL-6 levels in the culture supernatant: cell type (HM or HMO6.A1) not given; for levels of IL-8 in the supernatant: versus non-treated controls
Procedure: as §1, §2

[7] = HMO6, treatment time not stated

## Nc1ncnc2c1ncn2[C@@H]1O[C@H](COP(=O)(O)OP(=O)(O)OP(=O)(O)O)[C@@H](O)[C@H]1O [ATP]
[1]
  [Ca2+]i response: increase; also recorded: rapid and transient

## C[C@H](CCC(=O)O)C[C@H](C)C[C@H](C)C(=O)/C=C(\O)[C@H](C)C[C@H](C)C/C=C/[C@@H](C)[C@@H](O)[C@@H](C)[C@@H](O)C[C@@H]1CC[C@@](C)([C@H]2CC[C@@](C)([C@@H](C)O)O2)O1 [ionomycin]
[1]
  [Ca2+]i response: considerably larger than the ATP-induced response

## GM-CSF: granulocyte-macrophage colony-stimulating factor (GIBCO-BRL)
[2]
  P2Y2 receptor expression: expressed
  B7-2 mRNA expression: not
[3]
  increase in microglial population: 3-4 fold

## IL-1β: Recombinant human IL-1β (10 ng/ml, R&D Systems)
[2]
  P2Y2 receptor expression: expressed
  B7-2 mRNA expression: not
  Stimulated HMO6 cell expressed active substance(s): None

## NH2-GSNKGAIIGLM-COOH (H-GSNKGAIIGLM-OH) [Aβ25-35]
[2]; HMO6.A1, 6 hr
  CXCR4 expression: increased
  IL-1β expression: no change
  IL-6 expression: no change
  IL-8 mRNA expression: elevated
  IL-10 expression: not detected
  IL-12 expression: elevated
  MCP mRNA expression: elevated
  MIP-1α mRNA expression: not expressed
  MIP-1β expression: No change
[2]; HMO6.A1, 6 hr incubation
  TNF-α expression: not induced
[2]; HMO6.A1, after 24 hr
  TNF-α expression: induced
[2]; HMO6.A1, after 24 hr, listed as Aβ
  TNF-α expression: detected; also recorded: induced
[2]; Elevated IL-12 expression
  Stimulated HMO6 cell expressed active substance(s): Elevated IL-12
[2]; TNF-α expression
  Stimulated HMO6 cell expressed active substance(s): TNF-α
[4]
  IL-1β expression: slightly increased
  IL-4 expression: not recognized
  IL-8 mRNA: up-regulated
  IL-10 expression: increased
  IL-12 expression: elevated
  IL-13 expression: not recognized
  MCP mRNA: up-regulated
  MIP-1α mRNA: up-regulated
  MIP-1β mRNA: up-regulated
  TNF-α expression: markedly elevated
[5]
  MIP-1α amount of release: very low
  levels of IL-8 in the supernatant: greater
[5]; HMO6.A1, 48 hours stimulation, spent media
  TNF-α production (ELISA): marked increase
[6]; 48 hours stimulation
  IL-6 levels in the culture supernatant: not increased
[6]; HM, 48 hours
  MIP-1α levels: elevated
  levels of IL-8 in the supernatant: greater
[6]; HM, 48 hours stimulation
  release of IL-1β into culture medium: demonstrated
[6]; HM, 48 hours stimulation, spent media
  TNF-α production (ELISA): marked increase

## TNF-α
[2]; [7]
  Expression of MIP-1α: newly induced
  Expression of TNF-α: newly induced
[2]; HMO6.A1, 24 hr treatment
  MIP-1α expression: detected; also recorded: induced
[2]
  P2Y2 receptor expression: induced; also recorded: expressed
  B7-2 mRNA expression: induced; also recorded: expressed
[2]; HMO6.A1, treatment for 4 hr
  TNF-α gene expression: recognized; also recorded: induced
[2]; MIP-1α expression
  Stimulated HMO6 cell expressed active substance(s): MIP-1α
[2]; TNF-α expression
  Stimulated HMO6 cell expressed active substance(s): TNF-α

## lipopolysaccharide [LPS]
[2]; HMO6.A1, 6 hr
  CXCR4 expression: increased
[2]; HMO6.A1, 6 hr incubation
  TNF-α expression: not induced
[2]
  P2Y2 receptor expression: expressed
  B7-2 mRNA expression: not
[2]; HMO6.A1, after 24 hr
  TNF-α expression: induced
[5]
  MIP-1α amount of release: very low
  levels of IL-8 in the supernatant: greater
[6]; 48 hours stimulation
  IL-6 levels in the culture supernatant: increased
[6]; HM, 48 hours stimulation
  release of IL-1β into culture medium: demonstrated
[6]; HM, 48 hours
  levels of IL-8 in the supernatant: greater

B1: IFN-γ: recombinant human IFN-γ (500 IU/ml, LG Chem) (protein, UniProt P01579 24-161, looked up)
Interferon gamma: QDPYVKEAENLKKYFNAGHSDVADNGTLFLGILKNWKEESDRKIMQSQIVSFYFKLFKNFKDDQSIQKSVETIKEDMNVKFFNSNKKKRDDFEKLTNYSVTDLNVQRKAIHELIQVMAELSPAAKTGKRKRSQMLFRG
[2]
  P2Y2 receptor expression: expressed
  B7-2 mRNA expression: not
